A value given as a limit tells only on which side of the number the result lay.

Test [1] in a line: Cytotoxicity against human NCH421K cells after 72 hrs by CellTiter-Glo luminescent assay. Format: functional, cell-based. Background: ATP-based viability assays read luminescence as a measure of living cells.
Another test relates to SW480. Put plainly: Cytotoxicity against human SW480 cells after 72 hrs by CellTiter-Glo luminescent assay. Format: functional, cell-based. The following applies: SW480, 72 h.
Test [2] can be described thus: Cytotoxicity against human MEC1 cells after 72 hrs by CellTiter-Glo luminescent assay. Format: functional, cell-based. Particulars: MEC1, 72 h.
The next test concerns MCF7. Put plainly: Cytotoxicity against human MCF7 cells after 72 hrs by CellTiter-Glo luminescent assay. Format: functional, cell-based. Particulars: MCF7, 72 h.
A further test has as its system EVSA-T. The test can be described thus: Cytotoxicity against human EVSA-T cells after 72 hrs by CellTiter-Glo luminescent assay. Format: functional, cell-based.
The subject of another test is MDA-MB-231. Put plainly: Cytotoxicity against human MDA-MB-231 cells after 72 hrs by CellTiter-Glo luminescent assay. Format: functional, cell-based. Particulars: MDA-MB-231, 72 h.
For the next test, the system named is Escherichia coli. The test can be described thus: Antibacterial activity against Escherichia coli MB2884 measured after overnight incubation. Format: functional.
The test system of a further test is Klebsiella pneumoniae. The test can be described thus: Antibacterial activity against Klebsiella pneumoniae ATCC 700603 measured after overnight incubation. Format: functional.
Another test concerns Acinetobacter baumannii. The test can be described thus: Antibacterial activity against Acinetobacter baumannii MB5973 measured after overnight incubation. Format: functional.
A further test has as its system Pseudomonas aeruginosa. Put plainly: Antibacterial activity against Pseudomonas aeruginosa MB5919 measured after overnight incubation. Format: functional.
A further test deals with Staphylococcus aureus. The test can be described thus: Antibacterial activity against methicillin-resistant Staphylococcus aureus MB5393 measured after overnight incubation. Format: functional.
In the next test the test system is Aspergillus fumigatus. The test can be described thus: Antifungal activity against Aspergillus fumigatus ATCC 46645 measured after overnight incubation. Format: functional.
The subject of another test is Candida albicans. The test can be described thus: Antifungal activity against Candida albicans MY1055 measured after overnight incubation. Format: functional.

What is called IC50 is the concentration needed to halve the response being measured. The low end stands for greater potency in that assay, the high end for weaker potency in that assay. What is called MIC is the lowest concentration that inhibits growth of the organism. Higher therefore signals a need for much substance. `CC1(C)[C@@H](O)C(=O)c2c(O)ccc3c2N1C(=O)[C@@]31C[C@]2([N+](=O)[O-])CN3C[C@@H]4O[C@@H]4[C@@H]3C[C@H]2C1(C)C`: the half-inhibitory concentration (IC50) (in test [1]; in the test with SW480; in test [2]; in the test with MCF7; in the test on EVSA-T; in the test on MDA-MB-231) was more than 180 µM throughout. The MIC in the test on Escherichia coli, against Klebsiella pneumoniae, with Acinetobacter baumannii, with Pseudomonas aeruginosa, in the test on Staphylococcus aureus and in the test with Aspergillus fumigatus was more than 64 µg/mL each time. Besides, the MIC against Candida albicans was more than 64 µg/mL.

Regarding `COc1ccc2c3c1C(=O)[C@H](O)C(C)(C)N3C(=O)[C@@]21C[C@]2([N+](=O)[O-])CN3C[C@@H]4O[C@@H]4[C@@H]3C[C@H]2C1(C)C`, the IC50 (in test [1]; with SW480; in test [2]; in the test with MCF7; with EVSA-T; in the test with MDA-MB-231) was more than 180 µM in each case. Besides, the MIC in the test with Escherichia coli, with Klebsiella pneumoniae, in the test on Acinetobacter baumannii, against Pseudomonas aeruginosa, in the test on Staphylococcus aureus and against Aspergillus fumigatus was more than 64 µg/mL in each case. This compound also registered a minimum inhibitory concentration (MIC) in the test on Candida albicans of more than 64 µg/mL.
